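Tested at 5 concentrations; 48 h exposure; 96-well plates; endpoints linearly interpolated, else capped at highest concentration. GI50: concentration for 50% inhibition of growth. TGI: concentration producing complete growth inhibition.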
The compounds below were run on SK-MEL-2 melanoma (assay: DTP human tumour cell line panel, 48 h).

Structure (SMILES) | GI50 | TGI
CCCn1cnc2c(SCc3ccccc3Cl)nc(N)nc21 | 22.6 µM | 50.9 µM
Cc1ccc(NC(=O)c2cccc(N(C)C)c2)cc1NC(=O)c1ccc(O)cc1 | 14.1 µM | 39.2 µM
O=C(N/N=C/c1ccccc1O)c1ccccc1Nc1ccnc(C(F)(F)F)c1 | 3.61 µM | > 60.5 µM

These compounds were tested on SK-MEL-28 melanoma (assay: DTP human tumour cell line panel, 48 h).

Structure (SMILES) | TGI | GI50
CN1C(=O)C2(Cc3cn(C45CC67SSC(CO)(C(=O)N6C4Nc4ccccc45)N(C)C7=O)c4ccccc34)SSC1(CO)C(=O)N2C (configuration not stated) | 0.505 µM | 
CCCn1cnc2c(SCc3ccccc3Cl)nc(N)nc21 | > 100 µM | 27 µM
Cc1ccc(NC(=O)c2cccc(N(C)C)c2)cc1NC(=O)c1ccc(O)cc1 | > 100 µM | > 50.1 µM
O=C(N/N=C/c1ccccc1O)c1ccccc1Nc1ccnc(C(F)(F)F)c1 | > 88.1 µM | 1.71 µM

The compounds below were run on SK-MEL-5 melanoma (assay: DTP human tumour cell line panel, 48 h).

Structure (SMILES) | GI50 | TGI
CCCn1cnc2c(SCc3ccccc3Cl)nc(N)nc21 | 4.22 µM | 19 µM
Cc1ccc(NC(=O)c2cccc(N(C)C)c2)cc1NC(=O)c1ccc(O)cc1 | 28.5 µM | > 65.8 µM
O=C(N/N=C/c1ccccc1O)c1ccccc1Nc1ccnc(C(F)(F)F)c1 | 0.432 µM | 5.53 µM

Each compound was assayed on SK-OV-3 ovarian (assay: DTP human tumour cell line panel, 48 h).

Structure (SMILES) | TGI | GI50
CN1C(=O)C2(Cc3cn(C45CC67SSC(CO)(C(=O)N6C4Nc4ccccc45)N(C)C7=O)c4ccccc34)SSC1(CO)C(=O)N2C (configuration not stated) | 1.56 µM | 
CCCn1cnc2c(SCc3ccccc3Cl)nc(N)nc21 | > 100 µM | 14.9 µM
Cc1ccc(NC(=O)c2cccc(N(C)C)c2)cc1NC(=O)c1ccc(O)cc1 | > 100 µM | 65.7 µM
O=C(N/N=C/c1ccccc1O)c1ccccc1Nc1ccnc(C(F)(F)F)c1 | 38 µM | 0.649 µM

What follows are compounds tested on SN12C renal (assay: DTP human tumour cell line panel, 48 h).

Structure (SMILES) | TGI | GI50
CN1C(=O)C2(Cc3cn(C45CC67SSC(CO)(C(=O)N6C4Nc4ccccc45)N(C)C7=O)c4ccccc34)SSC1(CO)C(=O)N2C (configuration not stated) | 0.0696 µM | 
CCCn1cnc2c(SCc3ccccc3Cl)nc(N)nc21 | 95.2 µM | 19.6 µM
Cc1ccc(NC(=O)c2cccc(N(C)C)c2)cc1NC(=O)c1ccc(O)cc1 | > 100 µM | 55 µM
O=C(N/N=C/c1ccccc1O)c1ccccc1Nc1ccnc(C(F)(F)F)c1 | 72.6 µM | 0.974 µM

What follows are compounds tested on SNB-19 CNS (assay: DTP human tumour cell line panel, 48 h).

Structure (SMILES) | GI50 | TGI
CCCn1cnc2c(SCc3ccccc3Cl)nc(N)nc21 | 25.8 µM | > 100 µM
Cc1ccc(NC(=O)c2cccc(N(C)C)c2)cc1NC(=O)c1ccc(O)cc1 | 51.1 µM | > 100 µM
O=C(N/N=C/c1ccccc1O)c1ccccc1Nc1ccnc(C(F)(F)F)c1 | 1.77 µM | > 100 µM

These compounds were tested on SNB-75 CNS (assay: DTP human tumour cell line panel, 48 h).

Structure (SMILES) | TGI | GI50
CN1C(=O)C2(Cc3cn(C45CC67SSC(CO)(C(=O)N6C4Nc4ccccc45)N(C)C7=O)c4ccccc34)SSC1(CO)C(=O)N2C (configuration not stated) | 0.345 µM | 
CCCn1cnc2c(SCc3ccccc3Cl)nc(N)nc21 | 86 µM | 19.7 µM
Cc1ccc(NC(=O)c2cccc(N(C)C)c2)cc1NC(=O)c1ccc(O)cc1 | > 81.8 µM | 26.3 µM
O=C(N/N=C/c1ccccc1O)c1ccccc1Nc1ccnc(C(F)(F)F)c1 | 52.2 µM | 2.25 µM

The compounds below were run on SR leukemia (assay: DTP human tumour cell line panel, 48 h).

Structure (SMILES) | GI50 | TGI
CCCn1cnc2c(SCc3ccccc3Cl)nc(N)nc21 | 2.23 µM | 14.2 µM
Cc1ccc(NC(=O)c2cccc(N(C)C)c2)cc1NC(=O)c1ccc(O)cc1 | 31.5 µM | > 100 µM
O=C(N/N=C/c1ccccc1O)c1ccccc1Nc1ccnc(C(F)(F)F)c1 | 0.197 µM | 

The compounds below were run on SW-620 colon (assay: DTP human tumour cell line panel, 48 h).

Structure (SMILES) | TGI | GI50
CN1C(=O)C2(Cc3cn(C45CC67SSC(CO)(C(=O)N6C4Nc4ccccc45)N(C)C7=O)c4ccccc34)SSC1(CO)C(=O)N2C (configuration not stated) | > 100 µM | 
CCCn1cnc2c(SCc3ccccc3Cl)nc(N)nc21 | > 100 µM | 11.9 µM
Cc1ccc(NC(=O)c2cccc(N(C)C)c2)cc1NC(=O)c1ccc(O)cc1 | > 100 µM | > 75.5 µM
O=C(N/N=C/c1ccccc1O)c1ccccc1Nc1ccnc(C(F)(F)F)c1 | > 100 µM | 2.04 µM

Each compound was assayed on T-47D breast (assay: DTP human tumour cell line panel, 48 h).

Structure (SMILES) | GI50 | TGI
CCCn1cnc2c(SCc3ccccc3Cl)nc(N)nc21 | 22 µM | 80.8 µM
Cc1ccc(NC(=O)c2cccc(N(C)C)c2)cc1NC(=O)c1ccc(O)cc1 | > 48.7 µM | > 79.2 µM
O=C(N/N=C/c1ccccc1O)c1ccccc1Nc1ccnc(C(F)(F)F)c1 | 1.07 µM | > 78.4 µM

These compounds were tested on TK-10 renal (assay: DTP human tumour cell line panel, 48 h).

Structure (SMILES) | TGI | GI50
CN1C(=O)C2(Cc3cn(C45CC67SSC(CO)(C(=O)N6C4Nc4ccccc45)N(C)C7=O)c4ccccc34)SSC1(CO)C(=O)N2C (configuration not stated) | 0.103 µM | 
CCCn1cnc2c(SCc3ccccc3Cl)nc(N)nc21 | > 100 µM | 14.5 µM
Cc1ccc(NC(=O)c2cccc(N(C)C)c2)cc1NC(=O)c1ccc(O)cc1 | > 100 µM | > 70 µM
O=C(N/N=C/c1ccccc1O)c1ccccc1Nc1ccnc(C(F)(F)F)c1 | > 100 µM | 0.467 µM

What follows are compounds tested on U251 CNS (assay: DTP human tumour cell line panel, 48 h).

Structure (SMILES) | GI50 | TGI
CCCn1cnc2c(SCc3ccccc3Cl)nc(N)nc21 | 5.62 µM | 37.8 µM
Cc1ccc(NC(=O)c2cccc(N(C)C)c2)cc1NC(=O)c1ccc(O)cc1 | > 68.8 µM | > 100 µM
O=C(N/N=C/c1ccccc1O)c1ccccc1Nc1ccnc(C(F)(F)F)c1 | 0.442 µM | > 100 µM

The compounds below were run on UACC-257 melanoma (assay: DTP human tumour cell line panel, 48 h).

Structure (SMILES) | TGI | GI50
CN1C(=O)C2(Cc3cn(C45CC67SSC(CO)(C(=O)N6C4Nc4ccccc45)N(C)C7=O)c4ccccc34)SSC1(CO)C(=O)N2C (configuration not stated) | 1.13 µM | 
CCCn1cnc2c(SCc3ccccc3Cl)nc(N)nc21 | 93.8 µM | 27.8 µM
Cc1ccc(NC(=O)c2cccc(N(C)C)c2)cc1NC(=O)c1ccc(O)cc1 | > 100 µM | > 68.2 µM
O=C(N/N=C/c1ccccc1O)c1ccccc1Nc1ccnc(C(F)(F)F)c1 |  | 0.396 µM

Each compound was assayed on UACC-62 melanoma (assay: DTP human tumour cell line panel, 48 h).

Structure (SMILES) | TGI | GI50
CN1C(=O)C2(Cc3cn(C45CC67SSC(CO)(C(=O)N6C4Nc4ccccc45)N(C)C7=O)c4ccccc34)SSC1(CO)C(=O)N2C (configuration not stated) | 0.324 µM | 
CCCn1cnc2c(SCc3ccccc3Cl)nc(N)nc21 | 22.7 µM | 8.53 µM
Cc1ccc(NC(=O)c2cccc(N(C)C)c2)cc1NC(=O)c1ccc(O)cc1 | 99.4 µM | 34 µM
O=C(N/N=C/c1ccccc1O)c1ccccc1Nc1ccnc(C(F)(F)F)c1 | 7 µM | 0.365 µM

What follows are compounds tested on UO-31 renal (assay: DTP human tumour cell line panel, 48 h).

Structure (SMILES) | TGI | GI50
CN1C(=O)C2(Cc3cn(C45CC67SSC(CO)(C(=O)N6C4Nc4ccccc45)N(C)C7=O)c4ccccc34)SSC1(CO)C(=O)N2C (configuration not stated) | 0.179 µM | 
CCCn1cnc2c(SCc3ccccc3Cl)nc(N)nc21 | 63.5 µM | 10.8 µM
Cc1ccc(NC(=O)c2cccc(N(C)C)c2)cc1NC(=O)c1ccc(O)cc1 | > 100 µM | > 73.4 µM
O=C(N/N=C/c1ccccc1O)c1ccccc1Nc1ccnc(C(F)(F)F)c1 | 3.12 µM | 0.291 µM
